Assay results from US11634391B2, “Compounds which are inhibitors of Notum” (UCL BUSINESS LTD, priority 2018, dated 2023).
pIC50: −log10 of the molar value. Counter-ions that a name gives are not always drawn.

Biological target: notum carboxyesterase enzyme (Homo sapiens (Human), UniProt Q6P988)
Assay: Biochemical Notum Enzymatic Activity Assay (OPTS substrate, fluorescence)
Conditions: 2 μM OPTS solution, 2.38 nM notum enzyme solution, 1 hour incubation at room temperature, fluorescence ex 485 nm / em 520 nm; n≥2
Description: Plate layout and measured fluorescence values were input into Dotmatics Studies data management tool.

Sequence of notum carboxyesterase enzyme (Q6P988 20-496): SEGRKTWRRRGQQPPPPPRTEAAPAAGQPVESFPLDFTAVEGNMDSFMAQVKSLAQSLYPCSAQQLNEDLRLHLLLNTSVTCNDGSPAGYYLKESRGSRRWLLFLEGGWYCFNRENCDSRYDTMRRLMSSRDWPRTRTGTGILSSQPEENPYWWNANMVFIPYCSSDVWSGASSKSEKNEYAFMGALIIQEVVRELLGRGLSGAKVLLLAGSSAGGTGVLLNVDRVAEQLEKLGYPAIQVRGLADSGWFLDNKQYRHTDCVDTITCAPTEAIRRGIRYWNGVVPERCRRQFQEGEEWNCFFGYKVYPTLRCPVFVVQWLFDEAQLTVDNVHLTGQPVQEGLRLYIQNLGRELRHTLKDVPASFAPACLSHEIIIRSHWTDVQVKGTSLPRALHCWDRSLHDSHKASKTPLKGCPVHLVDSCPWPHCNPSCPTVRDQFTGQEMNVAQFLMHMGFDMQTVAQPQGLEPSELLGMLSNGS

| pIC50 | SMILES |
| --- | --- |
| 4.68 | FC(F)(F)c1cc(-c2nnn[nH]2)ccc1Cl [Compound 212, 5-[4-chloro-3-(trifluoromethyl)phenyl]-1H-tetrazole] |
| 5.31 | NCc1cn(-c2ccccc2)nn1 [Compound 39, (1-phenyl-1H-1,2,3-triazol-4-yl)methanamine] |
| 6.37 | FC(F)(F)c1ccc(-c2nnc(S)o2)cc1C1CC1 [Compound 187, 5-[3-cyclopropyl-4-(trifluoromethyl)phenyl]-1,3,4-oxadiazole-2-thiol] |
| 7.00 | FC(F)(F)c1cc(-n2ccnn2)ccc1Cl [Compound 175, 1-[4-chloro-3-(trifluoromethyl)phenyl]triazole] |
| 5.87 | FC(F)(F)c1cc(-c2cc[nH]n2)ccc1Cl [Compound 51, 3-(4-chloro-3-(trifluoromethyl)phenyl)-1H-pyrazole] |
| 7.57 | Cc1nnc(-c2ccc(Cl)c(C(F)(F)F)c2Cl)o1 [Compound 299, 2-(2,4-dichloro-3-(trifluoromethyl)phenyl)-5-methyl-1,3,4-oxadiazole] |
| 8.44 | [2H]C([2H])([2H])Oc1nnc(-c2ccc(Cl)c(C(F)(F)F)c2Cl)o1 [Compound 241, 2-(2,4-dichloro-3-(trifluoromethyl)phenyl)-5-(methoxy-d3)-1,3,4-oxadiazole] |
| 4.43 | NCc1cn(-c2cccc(C(F)(F)F)c2)nn1 [Compound 38, (1-(3-(trifluoromethyl)phenyl)-1H-1,2,3-triazol-4-yl)methanamine hydrochloride] |
| 5.05 | NCc1cn(-c2ccc(Cl)c(Cl)c2)nn1 [Compound 31, (1-(3,4-dichlorophenyl)-1H-1,2,3-triazol-4-yl)methanamine] |
| 5.24 | Clc1ccc(-c2cnco2)cc1 [Compound 151, 5-(4-chlorophenyl)oxazole] |
| < 4.64 | Oc1nnc(-c2cccc(C(F)(F)F)n2)o1 [Compound 206, 5-[6-(trifluoromethyl)-2-pyridyl]-1,3,4-oxadiazol-2-ol] |
| 6.32 | OCc1cn(-c2ccc(Cl)c(Cl)c2)nn1 [Compound 19, (1-(3,4-dichlorophenyl)-1H-1,2,3-triazol-4-yl)methanol] |
| 4.78 | Fc1ccc(-c2cc[nH]n2)cc1F [Compound 53, 3-(3,4-difluorophenyl)-1H-pyrazole] |
| 5.49 | Oc1c(F)cc(F)cc1-c1cc[nH]n1 [Compound 52, 2,4-difluoro-6-(1H-pyrazol-3-yl)phenol] |
| 5.89 | OCc1cn(-c2ccc3ccccc3c2)nn1 [Compound 3, (1-(naphthalen-2-yl)-1H-1,2,3-triazol-4-yl)methanol] |
| 6.36 | CN(C)c1nnc(-c2ccc(Cl)c(C(F)(F)F)c2Cl)o1 [Compound 247, 5-(2,4-dichloro-3-(trifluoromethyl)phenyl)-N,N-dimethyl-1,3,4-oxadiazol-2-amine] |
| 5.93 | Cc1nnnn1-c1ccc(Cl)c(C(F)(F)F)c1 [Compound 182, 1-[4-chloro-3-(trifluoromethyl)phenyl]-5-methyl-tetrazole] |
| 4.89 | Clc1ccc(-c2nnco2)cn1 [Compound 124, 2-(6-chloropyridin-3-yl)-1,3,4-oxadiazole] |

| SMILES | pIC50 |
| --- | --- |
| FC(F)(F)c1c(Cl)ccc(-c2c[nH]nn2)c1Cl [Compound 306, 4-[2,4-dichloro-3-(trifluoromethyl)phenyl]-1H-triazole] | 8.54 |
| Nc1nnc(-c2ccccc2)o1 [Compound 137, 5-phenyl-1,3,4-oxadiazol-2-amine] | 4.48 |
| N#Cc1nnc(-c2ccccc2)o1 [Compound 132, 5-phenyl-1,3,4-oxadiazole-2-carbonitrile] | 4.73 |
